In US7026281B1, “Antagonistic analogs of GH-RH inhibiting IGF-I and -II” (The Administrators of the Tulane Educational Fund, priority 1998, dated 2006):
Square brackets hold non-standard residues; d marks the D form. Peptide text beside a SMILES is read from it. * marks the point of attachment. Phe(4-Cl) = N[C@@H](Cc1ccc(Cl)cc1)C(=O)O; hArg = N=C(N)NCCCC[C@H](N)C(=O)O; X1 = O=C(Cc1c[nH]c2ccccc12)*; Nle = CCCC[C@H](N)C(=O)O; Abu = CC[C@H](N)C(=O)O; PhAc = O=C(Cc1ccccc1)*

Columns and labels:
[1] = test system: hGH-RH(1–29)NH2 induced GH release; test: Inhibition of GH release in superfused rat pituitary system; type: cell-based; details: antagonist 30 nM; for Inhibition of GH release (%) 30 min: 1 nM hGH-RH(1–29)NH2 30 min later; for Inhibition of GH release (%) 60 min: 1 nM hGH-RH(1–29)NH2 60 min later; for Inhibition of GH release (%) 90 min: 1 nM hGH-RH(1–29)NH2 90 min later; for Inhibition of GH release (%) 120 min: 1 nM hGH-RH(1–29)NH2 120 min later; for Inhibition of GH release (%) 0 min: 1 nM hGH-RH(1–29)NH2 at 0 min
Method: Superfused Rat Pituitary System.
The analogs were tested in vitro in a test described earlier (S. Vigh and A. V. Schally, Peptides 5:241–347, 1984) with modification (Z. Rekasi and A. V. Schally, P.N.A.S. 90:2146–2149, 1993).
Briefly, the cells are preincubated with peptides for 9 minutes (3 mL) at various concentrations. Immediately after the incubation, 1 nM hGH-RH(1–29)NH2 is administered for 3 minutes (1 mL) [0 minute response]. To check the duration of the antagonistic effect of the analogue, 1 nM hGH-RH(1–29)NH2 is applied 30, 60, 90, and 120 minutes later for 3 minutes [30, 60, 90, 120 min responses]. Net integral values of the GH responses are evaluated. GH responses are compared to and expressed as percent of the original GH response induced by 1 nM GH-RH(1–29)NH2. The effect of the new antagonists are compared to that of [Ac-Tyr^1,D-Arg^2]hGH-RH(1–29)NH2, the “Standard antagonist”.
Growth Hormone Radio-immunoassay.
Rat GH levels in aliquots of undiluted and diluted superfusion samples were measured by double-antibody radioimmunoassay using materials supplied by the National Hormone and Pituitary Program, Baltimore, Md. The results of RIA were analyzed with a computer program developed in our institute (V. Csernus and A. V. Schally, in Neuroendocrine Research Methods, Harwood Academic (Greenstein, B. D. ed., London, pp. 71–109, 1991), hereby incorporated by reference. Inter-assay variation was less than 15% and intra-assay variation was less than 10%.

[2] = target: T1, rat pituitary GH-RH receptors (Rattus norvegicus, UniProt Q02644); test: GH-RH radioreceptor binding assay, rat anterior pituitary membrane homogenates; details: for Ki: competition with [His1,125I-Tyr10,Nle27]hGH-RH(1–32)NH2; for R.A. (relative affinity compared to Standard antagonist): ratio of Ki values
T1 construct: from tissue; host or cells: anterior pituitary of male Sprague-Dawley rats, crude membrane homogenates
T1 sequence (Q02644 23-464): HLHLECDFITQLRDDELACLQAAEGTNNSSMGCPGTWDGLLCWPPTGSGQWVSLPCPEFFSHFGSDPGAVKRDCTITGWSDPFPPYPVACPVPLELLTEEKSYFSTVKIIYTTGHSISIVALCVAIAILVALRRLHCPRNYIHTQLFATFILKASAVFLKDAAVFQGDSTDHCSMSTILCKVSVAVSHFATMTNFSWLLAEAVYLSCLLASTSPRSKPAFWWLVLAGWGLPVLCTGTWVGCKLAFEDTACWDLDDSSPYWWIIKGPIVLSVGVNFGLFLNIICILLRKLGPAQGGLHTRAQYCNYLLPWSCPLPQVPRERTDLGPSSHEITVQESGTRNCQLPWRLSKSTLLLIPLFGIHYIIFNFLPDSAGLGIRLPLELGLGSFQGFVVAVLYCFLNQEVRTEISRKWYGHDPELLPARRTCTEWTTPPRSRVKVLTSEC
Method: GH-RH Binding Assay. A sensitive radioreceptor binding assay was developed to determine the binding characteristics of the antagonists of GH-RH (G. Halmos, A. V. Schally et al., Receptor 3, 87–97, 1993), hereby incorporated by reference. The assay is based on binding of labelled [His^1,Nle^27]hGH-RH(1–32)NH2 to rat anterior pituitary membrane homogenates. Iodinated derivatives of [His^1,Nle^27]hGH-RH(1–32)NH2 are prepared by the chloramine-T method (F. C. Greenwood et al., Biochemistry 89:114–123, 1963), hereby incorporated by reference. Pituitaries from male Sprague-Dawley rats (250–300 g) are used to prepare crude membranes. For saturation binding analyses, membrane homogenates are incubated with at least 6 concentrations of [His^1,^125I-Tyr^10,Nle^27]hGH-RH(1–32) NH2, ranging from 0.005 to 0.35 nM in the presence or absence of excess unlabelled peptide (1 μM).
The pellet is counted for radioactivity in a γ-counter. The affinities of the antagonist peptides tested to rat pituitary GH-RH receptors are determined in competitive binding experiments. The final binding affinities are estimated by Ki (dissociation constant of the inhibitor-receptor complex) and are determined by the Ligand PC and McPherson computer programs of Munson and Rodbard (P. J. Munson and D. Rodbard, Anal. Biochem. 107. 220–239, 1980). Relative affinities compared to [Ac-Tyr^1,D-Arg^2]hGH-RH(1–29)NH2, the Standard antagonist, are calculated as the […].

[3] = test system: GH release stimulated by hGH-RH(1–29)NH2; test: In vivo inhibition of serum GH response in rats; parameters: species or system rat; details: for Inhibition of the GH release stimulated by hGH-RH(1–29)NH2 (in words): 80 μg/kg i.v., rats
Method: GH-RH antagonistic effect of the analogs was tested on young male Sprague-Dawley rats (200–250 g). In each experiment, 5 groups of 7 animals each were used. The compounds (80 μg/kg) and GH-RH(1–29)NH2 (3 μg/kg) were dissolved in 5.5% mannitol and given intravenously to the jugular vein of the rats under Nembutal anesthesia. The time elapsed between the administrations of the antagonist and GH-RH varied between groups, according to the following schedule. The first group of animals received GH-RH injection 5 min after the administration of the antagonist; for the second, third and fourth group of animals, the time interval elapsed between the injection of the antagonist and that of GH-RH was 15, 30, and 60 min, respectively. The control group was first injected with the solvent alone instead of the antagonist, followed by a GH-RH injection 5 min later.
0.4 mL blood samples were taken for GH RIA before the administration of the antagonist (“blood0”), and 5 min after the injection of GH-RH (“blood1”). The GH response in each group was calculated as rGH=(GHblood1/GHblood0), mean±S.E.M. of the individual differences. Relative inhibition of GH response (%) in each group treated was calculated as […].

[4] = antagonist 80 μg/kg i.v. 5 min before GH-RH
[5] = antagonist 80 μg/kg i.v. 15 min before GH-RH
[6] = antagonist 80 μg/kg i.v. 15 min before GH-RH 3 μg/kg
[7] = antagonist 80 μg/kg i.v. 30 min before GH-RH
[8] = antagonist 80 μg/kg i.v. 30 min before GH-RH 3 μg/kg
[9] = antagonist 80 μg/kg i.v. 60 min before GH-RH
[10] = antagonist 80 μg/kg i.v. 60 min before GH-RH 3 μg/kg
[11] = rGH=GHblood1/GHblood0, antagonist 80 μg/kg i.v. 5 min before GH-RH 3 μg/kg

SMILES	Inhibition of GH release (%) 30 min [1] [%]	Inhibition of GH release (%) 60 min [1] [%]	Inhibition of GH release (%) 90 min [1] [%]	Inhibition of GH release (%) 120 min [1] [%]	Inhibition of GH release (%) 0 min [1] [%]	Ki [2] [nM]	R.A. (relative affinity compared to Standard antagonist) [2]	Inhibition of the GH release stimulated by hGH-RH(1–29)NH2 (in words) [3]	Relative inhibition % of GH response [3, 4] [%]	Relative inhibition % of GH response [3, 5] [%]	GH response mean ± S.E.M. [3, 6]	Relative inhibition % of GH response [3, 7] [%]	GH response mean ± S.E.M. [3, 8]	Relative inhibition % of GH response [3, 9] [%]	GH response mean ± S.E.M. [3, 10]	GH response mean ± S.E.M. [3, 11]
CCCC[C@H](NC(=O)[C@@H](NC(=O)[C@H](CC(=O)O)NC(=O)[C@H](CCC(N)=O)NC(=O)[C@H](CC(C)C)NC(=O)[C@H](CC(C)C)NC(=O)[C@H](CCCCN)NC(=O)[C@H](CCCNC(=N)N)NC(=O)[C@H](C)NC(=O)[C@H](CO)NC(=O)[C@H](CC(C)C)NC(=O)[C@H](CCC(N)=O)NC(=O)[C@H](CC)NC(=O)[C@H](CC(C)C)NC(=O)[C@@H](NC(=O)[C@H](CCCCN)NC(=O)[C@H](CCCNC(=N)N)NC(=O)[C@H](Cc1ccc(O)cc1)NC(=O)[C@H](CCCNC(=N)N)NC(=O)[C@H](CC(N)=O)NC(=O)[C@@H](NC(=O)[C@H](Cc1ccc(Cl)cc1)NC(=O)[C@@H](NC(=O)[C@H](C)NC(=O)[C@H](CC(=O)O)NC(=O)[C@@H](CCCNC(=N)N)NC(=O)[C@H](Cc1ccc(O)cc1)NC(=O)Cc1c[nH]c2ccccc12)[C@@H](C)CC)[C@@H](C)O)C(C)C)[C@@H](C)CC)C(=O)N[C@H](CCCNC(=N)N)C(=O)N[C@@H](CCCCNC(=N)N)C(N)=O [Peptide 2, [IndAc^0, D-Arg^2, Phe(pCl)^6, Arg^9, Abu^15, Nle^27, D-Arg^28, Har^29]hGH-RH(1–29)NH2] (X1-Y[dR]DAI[Phe(4-Cl)]TNRYRKVL[Abu]QLSARKLLQDI[Nle][dR][hArg]-NH2)	100	100	100	91	100	0.046	64	strong and long-lasting inhibition	91	45	3.45 ± 0.13	41	3.64 ± 0.71	2	5.41 ± 1.35	1.40 ± 0.29
CCCC[C@H](NC(=O)[C@@H](NC(=O)[C@H](CC(=O)O)NC(=O)[C@H](CCC(N)=O)NC(=O)[C@H](CC(C)C)NC(=O)[C@H](CC(C)C)NC(=O)[C@H](CCCCN)NC(=O)[C@H](CCCNC(=N)N)NC(=O)[C@H](C)NC(=O)[C@H](CO)NC(=O)[C@H](CC(C)C)NC(=O)[C@H](CCC(N)=O)NC(=O)[C@H](CC)NC(=O)[C@H](CC(C)C)NC(=O)[C@@H](NC(=O)[C@H](CCCCN)NC(=O)[C@H](CCCNC(=N)N)NC(=O)[C@H](Cc1ccc(O)cc1)NC(=O)[C@H](CCCCNC(=N)N)NC(=O)[C@H](CC(N)=O)NC(=O)[C@@H](NC(=O)[C@H](Cc1ccc(Cl)cc1)NC(=O)[C@@H](NC(=O)[C@H](C)NC(=O)[C@H](CC(=O)O)NC(=O)[C@@H](CCCNC(=N)N)NC(=O)[C@H](Cc1ccc(O)cc1)NC(=O)Cc1ccccc1)[C@@H](C)CC)[C@@H](C)O)C(C)C)[C@@H](C)CC)C(=O)N[C@H](CCCNC(=N)N)C(=O)N[C@@H](CCCCNC(=N)N)C(N)=O [Peptide 4, [PhAc^0, D-Arg^2, Phe(pCl)^6, Har^9, Abu^15, Nle^27, D-Arg^28, Har^29]hGH-RH(1–29)NH2] (PhAc-Y[dR]DAI[Phe(4-Cl)]TN[hArg]YRKVL[Abu]QLSARKLLQDI[Nle][dR][hArg]-NH2)	86	80	79	68	83	0.087	34	strong and long-lasting inhibition	82	43	7.73 ± 1.12	7	12.00 ± 2.54	8	11.88 ± 0.90	3.08 ± 0.58
CCCC[C@H](NC(=O)[C@@H](NC(=O)[C@H](CC(=O)O)NC(=O)[C@H](CCC(N)=O)NC(=O)[C@H](CC(C)C)NC(=O)[C@H](CC(C)C)NC(=O)[C@H](CCCCN)NC(=O)[C@H](CCCNC(=N)N)NC(=O)[C@H](C)NC(=O)[C@H](CO)NC(=O)[C@H](CC(C)C)NC(=O)[C@H](CCC(N)=O)NC(=O)[C@H](CC)NC(=O)[C@H](CC(C)C)NC(=O)[C@@H](NC(=O)[C@H](CCCCN)NC(=O)[C@H](CCCNC(=N)N)NC(=O)[C@H](Cc1ccc(OC)cc1)NC(=O)[C@H](CO)NC(=O)[C@H](CC(N)=O)NC(=O)[C@@H](NC(=O)[C@H](Cc1ccc(Cl)cc1)NC(=O)[C@@H](NC(=O)[C@H](C)NC(=O)[C@H](CC(=O)O)NC(=O)[C@@H](CCCNC(=N)N)NC(=O)[C@H](Cc1ccc(O)cc1)NC(=O)Cc1ccccc1)[C@@H](C)CC)[C@@H](C)O)C(C)C)[C@@H](C)CC)C(=O)N[C@@H](CO)C(=O)N[C@H](CCCNC(=N)N)C(N)=O [Peptide 16, [PhAc^0, D-Arg^2, Phe(pCl)^6, Tyr(Me)^10, Abu^15, Nle^27, D-Arg^29]hGH-RH(1–29)NH2] (PhAc-Y[dR]DAI[Phe(4-Cl)]TNSY(Me)RKVL[Abu]QLSARKLLQDI[Nle]S[dR]-NH2)	87	83	56	65	65	0.07	42	strong and long-lasting inhibition	77	70	3.44 ± 0.62	48	5.24 ± 1.36	0	9.19 ± 1.89	2.89 ± 0.65
